{"source": "BindingDB's records for doi:10.1016/j.bmc.2010.11.049", "about": "(Bryn Mawr College, 2011)", "data": [{"experiment": "Inhibition of HIV1 YU2 gp120 binding to CD4 expressing Cf2Th-CD4/CCR5 cells assessed as inhibition of viral infection after 48 hrs", "units": {"IC50": "µM"}, "values": [{"smiles": "CC1(C)CC(NCC(=O)Nc2ccc(Cl)c(F)c2)CC(C)(C)N1", "note": "[N-(4-chloro-3-fluorophenyl)-2-(2,2,6,6-tetramethylpiperidin-4-ylamino)acetamide]", "IC50": "> 100"}, {"smiles": "O=C(NCC1OCCc2ccccc21)C(=O)Nc1ccc(Br)cc1", "note": "(centres undefined) [N1-(4-bromophenyl)-N2-(isochroman-1-ylmethyl)oxalamide]", "IC50": "> 100"}, {"smiles": "COc1cccc(N[C@@H](C)C(=O)Nc2ccc(Br)cc2)c1", "note": "[(S)-N-(4-bromophenyl)-2-(3-methoxyphenylamino)propanamide]", "IC50": "> 100"}, {"smiles": "O=C(Nc1ccc2c(c1)C(=O)NC2=O)c1ccc(Cl)c(Cl)c1", "note": "[3,4-dichloro-N-(1,3-dioxoisoindolin-5-yl)benzamide]", "IC50": "> 100"}, {"smiles": "O=C(CN1CCCCCC1)Nc1ccc(Br)cc1", "note": "[2-(azepan-1-yl)-N-(4-bromophenyl)acetamide]", "IC50": "> 100"}, {"smiles": "CC(C)c1cccc(NC(=O)C(=O)NC2CC(C)(C)NC(C)(C)C2)c1", "note": "[N1-(3-isopropylphenyl)-N2-(2,2,6,6-tetramethylpiperidin-4-yl)oxalamide]", "IC50": "> 100"}, {"smiles": "CN(C(=O)C(=O)Nc1ccc(Cl)c(F)c1)C1CC(C)(C)NC(C)(C)C1", "note": "[N1-(4-chloro-3-fluorophenyl)-N2-methyl-N2-(2,2,6,6-tetramethylpiperidin-4-yl)oxalamide]", "IC50": "> 100"}, {"smiles": "CC1(C)OC(=O)N(CCC(=O)Nc2ccc(Cl)cc2)[C@@]1(C)O", "note": "[(S)-N-(4-chlorophenyl)-3-(4-hydroxy-4,5,5-trimethyl-2-oxooxazolidin-3-yl)propanamide]", "IC50": "> 100"}, {"smiles": "O=C(NCC(c1ccco1)N1CCCC1)C(=O)Nc1ccc(Cl)c(F)c1", "note": "(centres undefined) [N1-(4-chloro-3-fluorophenyl)-N2-(2-(furan-2-yl)-2-(pyrrolidin-1-yl)ethyl)oxalamide]", "IC50": "> 100"}, {"smiles": "CCNC(=S)N1CCN(CC(=O)Nc2ccc(Br)cc2)CC1", "note": "[4-(2-(4-bromophenylamino)-2-oxoethyl)-N-ethylpiperazine-1-carbimidothioic acid]", "IC50": "> 100"}, {"smiles": "CN1CCCC(NC(=O)C(=O)Nc2ccc(Cl)c(F)c2)C1", "note": "(centres undefined) [N1-(4-chloro-3-fluorophenyl)-N2-(1-methylpiperidin-3-yl)oxalamide]", "IC50": "> 100"}, {"smiles": "COc1cccc(CNC(=O)C(=O)Nc2ccc(Cl)cc2)c1", "note": "[N1-(4-chlorophenyl)-N2-(3-methoxybenzyl)oxalamide]", "IC50": "> 100"}, {"smiles": "O=C(Nc1ccc(Cl)c(F)c1)C(=O)N[C@@H]1CCN(Cc2ccccc2)C1", "note": "[(R)-N1-(1-benzylpyrrolidin-3-yl)-N2-(4-chloro-3-fluorophenyl)oxalamide]", "IC50": 58.5}, {"smiles": "Cc1cc(SCC(=O)Nc2ccc(Cl)cc2)[nH]c(=O)n1", "note": "[N-(4-chlorophenyl)-2-(6-methyl-2-oxo-1,2-dihydropyrimidin-4-ylthio)acetamide]", "IC50": "> 100"}, {"smiles": "CC1(C)CC(NC(=O)C(=O)Nc2ccc(Cl)c(F)c2)CC(C)(C)O1", "note": "[N1-(4-chloro-3-fluorophenyl)-N2-(2,2,6,6-tetramethyltetrahydro-2H-pyran-4-yl)oxalamide]", "IC50": "> 100"}, {"smiles": "CN1CCC(NC(=O)Nc2ccc(Cl)cc2Cl)CC1", "note": "[4-(3-(2,4-dichlorophenyl)ureido)-1-methylpiperidinium]", "IC50": "> 100"}, {"smiles": "CC1(C)CC(=O)c2cc(C(=O)Nc3ccc(Cl)cc3)c(=O)[nH]c2C1", "note": "[N-(4-chlorophenyl)-7,7-dimethyl-2,5-dioxo-1,2,5,6,7,8-hexahydroquinoline-3-carboxamide]", "IC50": "> 100"}, {"smiles": "CCn1ncnc1C(C)NC(=O)C(=O)Nc1ccc(Cl)c(F)c1", "note": "(centres undefined) [N1-(4-chloro-3-fluorophenyl)-N2-(1-(1-ethyl-1H-1,2,4-triazol-5-yl)ethyl)oxalamide]", "IC50": "> 100"}, {"smiles": "O=C(Nc1ccc(Cl)c(F)c1)C(=O)Nc1cccc2[nH]ncc12", "note": "[N1-(4-chloro-3-fluorophenyl)-N2-(1H-indazol-4-yl)oxalamide]", "IC50": "> 100"}, {"smiles": "O=C(NC[C@@H]1COC2(CCCC2)O1)C(=O)Nc1ccc(Cl)cc1", "note": "[(R)-N1-(1,4-dioxaspiro[4.4]nonan-2-ylmethyl)-N2-(4-chlorophenyl)oxalamide]", "IC50": "> 100"}, {"smiles": "CC(C)Oc1cc(NC(=O)C(=O)NC2CC(C)(C)NC(C)(C)C2)ccc1Cl", "note": "[N1-(4-chloro-3-isopropoxyphenyl)-N2-(2,2,6,6-tetramethylpiperidin-4-yl)oxalamide]", "IC50": "> 100"}, {"smiles": "CC(C)(CNC(=O)C(=O)Nc1ccc(Cl)c(F)c1)N1CCOCC1", "note": "[N1-(4-chloro-3-fluorophenyl)-N2-(2-methyl-2-morpholinopropyl)oxalamide]", "IC50": "> 100"}, {"smiles": "O=C(NCC1CCCN(CCO)C1)C(=O)Nc1ccc(Cl)c(F)c1", "note": "(centres undefined) [N1-(4-chloro-3-fluorophenyl)-N2-((1-(2-hydroxyethyl)piperidin-3-yl)methyl)oxalamide]", "IC50": 27.6}, {"smiles": "Nc1ccc(C(=O)CC(=O)Nc2ccc(Cl)cc2)cc1", "note": "[3-(4-aminophenyl)-N-(4-chlorophenyl)-3-oxopropanamide]", "IC50": "> 100"}, {"smiles": "CC(C)C1CCN(CCC(=O)Nc2ccc(Br)cc2)CC1", "note": "[trans-1-(3-(4-bromophenylamino)-3-oxopropyl)-4-isopropylpiperidinium]", "IC50": "> 100"}, {"smiles": "CN(C(=O)C(=O)NC1CC(C)(C)NC(C)(C)C1)c1ccc(Cl)cc1", "note": "[N1-(4-chlorophenyl)-N1-methyl-N2-(2,2,6,6-tetramethylpiperidin-4-yl)oxalamide]", "IC50": "> 100"}, {"smiles": "O=C(NC[C@@H]1CCCN2CCCC[C@H]12)C(=O)Nc1ccc(Cl)c(F)c1", "note": "[N1-(4-chloro-3-fluorophenyl)-N2-(((1S,9aR)-octahydro-1H-quinolizin-1-yl)methyl)oxalamide]", "IC50": "> 100"}, {"smiles": "CN1CCC(CNC(=O)C(=O)Nc2ccc(Cl)c(F)c2)CC1", "note": "[N1-(4-chloro-3-fluorophenyl)-N2-((1-methylpiperidin-4-yl)methyl)oxalamide]", "IC50": "> 100"}, {"smiles": "CC(C)N1CCCCC1CCNC(=O)C(=O)Nc1ccc(Cl)c(F)c1", "note": "(centres undefined) [N1-(4-chloro-3-fluorophenyl)-N2-(2-(1-isopropylpiperidin-2-yl)ethyl)oxalamide]", "IC50": 27}, {"smiles": "CC1(C)CC(NC(=O)C(=O)Nc2c[nH]c3ncccc23)CC(C)(C)N1", "note": "[N1-(1H-pyrrolo[2,3-b]pyridin-3-yl)-N2-(2,2,6,6-tetramethylpiperidin-4-yl)oxalamide]", "IC50": "> 100"}, {"smiles": "O=C(NCc1[nH]nc2c1CCCCC2)C(=O)Nc1ccc(Cl)c(F)c1", "note": "[N1-(4-chloro-3-fluorophenyl)-N2-((1,4,5,6,7,8-hexahydrocyclohepta[c]pyrazol-3-yl)methyl)oxalamide]", "IC50": "> 100"}, {"smiles": "O=C(COC(=O)c1n[nH]c2ccccc12)Nc1ccc(Cl)cn1", "note": "[2-(5-chloropyridin-2-ylamino)-2-oxoethyl 1H-indazole-3-carboxylate]", "IC50": "> 100"}, {"smiles": "Nc1ncc(CNC(=O)C(=O)Nc2ccc(Cl)c(F)c2)cn1", "note": "[N1-((2-aminopyrimidin-5-yl)methyl)-N2-(4-chloro-3-fluorophenyl)oxalamide]", "IC50": "> 100"}, {"smiles": "CN1CCCC(ONC(=O)C(=O)Nc2ccc(Cl)c(F)c2)C1", "note": "(centres undefined) [N1-(4-chloro-3-fluorophenyl)-N2-(1-methylpiperidin-3-yloxy)oxalamide]", "IC50": "> 100"}, {"smiles": "CC1(C)CC(NC(=O)C(=O)Nc2ccc3ccccc3c2)CC(C)(C)N1", "note": "[N1-(naphthalen-2-yl)-N2-(2,2,6,6-tetramethylpiperidin-4-yl)oxalamide]", "IC50": "> 100"}, {"smiles": "NC(=O)C1CCN(CCC(=O)Nc2ccc(Br)cc2)CC1", "note": "[cis-1-(3-(4-bromophenylamino)-3-oxopropyl)-4-carbamoylpiperidinium]", "IC50": "> 100"}, {"smiles": "CC1(C)O[C@@H](CN)[C@H](CNC(=O)C(=O)Nc2ccc(Cl)c(F)c2)O1", "note": "[N1-(((4S,5S)-5-(aminomethyl)-2,2-dimethyl-1,3-dioxolan-4-yl)methyl)-N2-(4-chloro-3-fluorophenyl)oxalamide]", "IC50": 76.6}, {"smiles": "C[C@@H](Sc1nc(N)cc(=O)[nH]1)C(=O)Nc1ccc(Cl)cc1", "note": "[(R)-2-(6-amino-4-oxo-1,4-dihydropyrimidin-2-ylthio)-N-(4-chlorophenyl)propanamide]", "IC50": "> 100"}, {"smiles": "CC(C)N1CCC(NC(=O)C(=O)Nc2ccc(Cl)c(F)c2)CC1", "note": "[N1-(4-chloro-3-fluorophenyl)-N2-(1-isopropylpiperidin-4-yl)oxalamide]", "IC50": "> 100"}, {"smiles": "N=c1oc2cc(O)ccc2cc1C(=O)Nc1ccc(Cl)cc1", "note": "[N-(4-chlorophenyl)-7-hydroxy-2-imino-2H-chromene-3-carboxamide]", "IC50": "> 100"}, {"smiles": "CC(C)(C)c1cc(CNC(=O)C(=O)Nc2ccc(Cl)c(F)c2)[nH]n1", "note": "[N1-((5-tert-butyl-1H-pyrazol-3-yl)methyl)-N2-(4-chloro-3-fluorophenyl)oxalamide]", "IC50": "> 100"}, {"smiles": "CC1CN(CCNC(=O)C(=O)Nc2ccc(Cl)c(F)c2)CC(C)O1", "note": "(centres undefined) [N1-(4-chloro-3-fluorophenyl)-N2-(2-(2,6-dimethylmorpholino)ethyl)oxalamide]", "IC50": "> 100"}, {"smiles": "Cc1ccc(C(C)C)c(OCC(=O)NNC(=O)Nc2ccc(Cl)cc2)c1", "note": "[N-(4-chlorophenyl)-2-(2-(2-isopropyl-5-methylphenoxy)acetyl)hydrazinecarboxamide]", "IC50": "> 100"}, {"smiles": "CC1(C)CC(NC(=O)C(=O)Nc2ccc(Cl)c(OCc3ccccc3)c2)CC(C)(C)N1", "note": "[N1-(3-(benzyloxy)-4-chlorophenyl)-N2-(2,2,6,6-tetramethylpiperidin-4-yl)oxalamide]", "IC50": "> 100"}, {"smiles": "CN1CCCN(C(=O)COc2ccc(Cl)cc2)CC1", "note": "[4-(2-(4-chlorophenoxy)acetyl)-1-methyl-1,4-diazepan-1-ium]", "IC50": "> 100"}, {"smiles": "O=C(Nc1ccc(Cl)c(F)c1)C(=O)NC1CCc2[nH]ncc2C1", "note": "(centres undefined) [N1-(4-chloro-3-fluorophenyl)-N2-(4,5,6,7-tetrahydro-1H-indazol-5-yl)oxalamide]", "IC50": "> 100"}, {"smiles": "O=C(Nc1ccc(Cl)c(F)c1)C(=O)N[C@H]1CCN(Cc2ccccc2)C1", "note": "[(S)-N1-(1-benzylpyrrolidin-3-yl)-N2-(4-chloro-3-fluorophenyl)oxalamide]", "IC50": "> 100"}, {"smiles": "CC1(C)CC(NC(=O)C(=O)Nc2ccc(-n3cc(CCCCCO)nn3)cc2)CC(C)(C)N1", "note": "[N1-(4-(4-(5-hydroxypentyl)-1H-1,2,3-triazol-1-yl)phenyl)-N2-(2,2,6,6-tetramethylpiperidin-4-yl)oxalamide]", "IC50": "> 100"}, {"smiles": "O=C(NC[C@@]12CCC[C@@H]1CNC2)C(=O)Nc1ccc(Cl)c(F)c1", "note": "[N1-(4-chloro-3-fluorophenyl)-N2-(((3aS,6aS)-octahydrocyclopenta[c]pyrrol-3a-yl)methyl)oxalamide]", "IC50": 68.3}]}]}
